# What was measured:
# [1] = biological target: IRAK4 (Homo sapiens (Human), UniProt Q9NWZ3); test: IRAK4 Inhibition Assay; assay type: biochemical; conditions: ATP 500 μM; IRAK4 0.6 nM
# How it was run: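 Enzyme 0.6 nM, ATP 500 μM, FL-peptide 1.5 μM, DMSO 1.6%; HEPES pH 7.2/MgCl2/Brij 35/DTT buffer. RT, 60 min, EDTA stop. Mobility-shift product/substrate ratio; % inhib vs no-enzyme and vehicle controls.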
# [2] = Caco Permeability Assay; assay type: in vitro ADME; conditions: human, Caco-2, Caco-2 cells, 3 μM compound
# [3] = system: IL-6 levels in human whole blood stimulated with a TLR2 agonist; test: IRAK4 Whole Blood Assay (lipoteichoic acid/TLR2-stimulated IL-6); assay type: cell-based; conditions: lipoteichoic acid 10 μg/mL, IL-6 readout
# How it was run: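 ACD-A-anticoagulated human whole blood was preincubated with compounds for 60 min at 37 °C under 5% CO2. It was then stimulated with 10 μg/mL lipoteichoic acid (final) in RPMI for 5 h. IL-6 in plasma supernatants was measured by flow cytometry bead assay.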
# Chain of IRAK4 (Q9NWZ3 whole entry): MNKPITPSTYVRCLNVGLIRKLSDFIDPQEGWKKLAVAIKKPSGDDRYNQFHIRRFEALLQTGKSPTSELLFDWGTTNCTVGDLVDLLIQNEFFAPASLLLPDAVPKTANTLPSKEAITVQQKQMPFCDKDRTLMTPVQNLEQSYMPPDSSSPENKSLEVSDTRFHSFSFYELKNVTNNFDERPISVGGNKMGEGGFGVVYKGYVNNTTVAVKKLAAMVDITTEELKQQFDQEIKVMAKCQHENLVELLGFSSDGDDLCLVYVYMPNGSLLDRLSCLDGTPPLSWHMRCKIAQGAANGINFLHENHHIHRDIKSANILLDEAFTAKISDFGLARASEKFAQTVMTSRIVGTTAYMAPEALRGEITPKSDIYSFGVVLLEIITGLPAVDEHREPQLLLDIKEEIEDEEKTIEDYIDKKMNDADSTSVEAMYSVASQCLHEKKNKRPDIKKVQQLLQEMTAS
Compound,IC50 [1] [nM],"Papp at 2 h, 3 µM [2] [×10⁻⁶ cm/s]",EC50 ([3]; Homo sapiens) [nM],EC50 [3] [nM]
"Cc1cnn2c(-c3cc(NC4CCC4)c(C(=O)NC[C@@H](F)C(C)(C)O)cn3)cnc2c1 [Example 185, (R)-4-(cyclobutylamino)-N-(2-fluoro-3-hydroxy-3-methylbutyl)-6-(7-methylimidazo[1,2-b]pyridazin-3-yl)nicotinamide]",7,4.7,820,
"CCNc1cc(-c2cnc3cc(C#N)cnn23)ncc1C(=O)NC[C@@H](F)C(C)(C)O [Example 188, (R)-6-(7-cyanoimidazo[1,2-b]pyridazin-3-yl)-4-(ethylamino)-N-(2-fluoro-3-hydroxy-3-methylbutyl)nicotinamide]",5,6.7,240,
"CC(C)(C)CCNC(=O)c1cnc(-c2cnc3cc(Cl)cnn23)cc1NC1COC1 [Example 192, 6-(7-chloroimidazo[1,2-b]pyridazin-3-yl)-N-(3,3-dimethylbutyl)-4-(oxetan-3-ylamino)nicotinamide]",10,29.9,500,
"CC(C)Nc1cc(-c2cnc3cc(C#N)cnn23)ncc1C(=O)NC[C@H](F)C(C)(C)O [Example 194, (S)-6-(7-cyanoimidazo[1,2-b]pyridazin-3-yl)-N-(2-fluoro-3-hydroxy-3-methylbutyl)-4-(isopropylamino)nicotinamide]",8,4.2,230,
"CC(C)Nc1cc(-c2cnc3cc(C#N)cnn23)ncc1C(=O)NCC(F)C1CCNCC1 (stereo not drawn) [Example 197, 6-(7-cyanoimidazo[1,2-b]pyridazin-3-yl)-N-(2-fluoro-2-(piperidin-4-yl)ethyl)-4-(isopropylamino)nicotinamide]",2,< 1.5,280,
"CC(C)(O)[C@H](F)CNC(=O)c1cnc(-c2cnc3cc(Cl)cnn23)cc1NC1CC(F)C1 (stereo partly drawn) [Example 199, (R)-6-(7-chloroimidazo[1,2-b]pyridazin-3-yl)-N-(2-fluoro-3-hydroxy-3-methylbutyl)-4-((3-fluorocyclobutyl)amino)nicotinamide]",4,15.8,550,
"CC(C)Nc1cc(-c2cnc3cc(C#N)cnn23)ncc1C(=O)NCCc1ccccn1 [Example 216, 6-(7-cyanoimidazo[1,2-b]pyridazin-3-yl)-4-(isopropylamino)-N-(2-(pyridin-2-yl)ethyl)nicotinamide]",8,23.9,310,
"CC(C)Nc1cc(-c2cnc3cc(C#N)cnn23)ncc1C(=O)NCCC1(O)CCCC1 [Example 217, 6-(7-cyanoimidazo[1,2-b]pyridazin-3-yl)-N-(2-(1-hydroxycyclopentyl)ethyl)-4-(isopropylamino)nicotinamide]",2,25.6,300,
"CC(C)(F)Cn1cc(Nc2cc(-c3cnn4cc(Cl)cnc34)ncc2C(=O)NC[C@@H](F)C(C)(C)O)cn1 [Example 227, (R)-6-(6-chloropyrazolo[1,5-a]pyrimidin-3-yl)-4-((1-(2-fluoro-2-methylpropyl)-1H-pyrazol-4-yl)amino)-N-(2-fluoro-3-hydroxy-3-methylbutyl)nicotinamide]",2,4,170,
"CC(C)(O)[C@H](F)CNC(=O)c1cnc(-c2cnn3cc(C#N)cnc23)cc1Nc1ccn(CC(F)F)n1 [Example 230, (R)-6-(6-cyanopyrazolo[1,5-a]pyrimidin-3-yl)-4-((1-(2,2-difluoroethyl)-1H-pyrazol-3-yl)amino)-N-(2-fluoro-3-hydroxy-3-methylbutyl)nicotinamide]",3,< 1.5,430,
"CCn1cc(Nc2cc(-c3cnn4cc(Cl)cnc34)ncc2C(=O)NC[C@@H](F)C(C)(C)O)cn1 [Example 232, (R)-6-(6-chloropyrazolo[1,5-a]pyrimidin-3-yl)-4-((1-ethyl-1H-pyrazol-4-yl)amino)-N-(2-fluoro-3-hydroxy-3-methylbutyl)nicotinamide]",1,3.7,140,

# The remaining compounds from weak to strong by IC50 [1], led by results:
IC50 [1] [nM],"Papp at 2 h, 3 µM [2] [×10⁻⁶ cm/s]",EC50 ([3]; Homo sapiens) [nM],EC50 [3] [nM],Compound
9,11.3,580,,"CC(C)(F)Cn1ccc(Nc2cc(-c3cnn4cc(Cl)cnc34)ncc2C(=O)NC[C@@H](F)C(C)(C)O)n1 [Example 229, (R)-6-(6-chloropyrazolo[1,5-a]pyrimidin-3-yl)-4-((1-(2-fluoro-2-methylpropyl)-1H-pyrazol-3-yl)amino)-N-(2-fluoro-3-hydroxy-3-methylbutyl)nicotinamide]"
7,31.2,490,,"CC(C)(F)[C@H](F)CNC(=O)c1cnc(-c2cnc3cc(Cl)cnn23)cc1NC1COC1 [Example 189, (R)-6-(7-chloroimidazo[1,2-b]pyridazin-3-yl)-N-(2,3-difluoro-3-methylbutyl)-4-(oxetan-3-ylamino)nicotinamide]"
6,15.3,610,,"CC(C)(O)[C@H](F)CNC(=O)c1cnc(-c2cnc3cc(Cl)cnn23)cc1NCCC(F)(F)F [Example 190, (R)-6-(7-chloroimidazo[1,2-b]pyridazin-3-yl)-N-(2-fluoro-3-hydroxy-3-methylbutyl)-4-((3,3,3-trifluoropropyl)amino)nicotinamide]"
5,12.2,250,,"CC(C)Nc1cc(-c2cnc3cc(C#N)cnn23)ncc1C(=O)NCCC(C)(C)O [Example 186, 6-(7-cyanoimidazo[1,2-b]pyridazin-3-yl)-N-(3-hydroxy-3-methylbutyl)-4-(isopropylamino) nicotinamide]"
5,2.1,220,,"CC(C)(O)CCNC(=O)c1cnc(-c2cnc3cc(Cl)cnn23)cc1NC1COC1 [Example 218, 6-(7-chloroimidazo[1,2-b]pyridazin-3-yl)-N-(3-hydroxy-3-methylbutyl)-4-(oxetan-3-ylamino)nicotinamide]"
4,3.7,700,,"CC(C)(O)[C@H](F)CNC(=O)c1cnc(-c2cnc3cc(C#N)cnn23)cc1NC1CC(F)(F)C1 [Example 195, (R)-6-(7-cyanoimidazo[1,2-b]pyridazin-3-yl)-4-((3,3-difluorocyclobutyl)amino)-N-(2-fluoro-3-hydroxy-3-methylbutyl)nicotinamide]"
4,4.5,210,,"CC(C)(O)[C@H](F)CNC(=O)c1cnc(-c2cnc3cc(C#N)cnn23)cc1NCCC(F)(F)F [Example 205, (R)-6-(7-cyanoimidazo[1,2-b]pyridazin-3-yl)-N-(2-fluoro-3-hydroxy-3-methylbutyl)-4-((3,3,3-trifluoropropyl)amino)nicotinamide]"
3,< 1.5,80,,"CC(C)(O)[C@H](F)CNC(=O)c1cnc(-c2cnc3cc(C#N)cnn23)cc1NC1CCOC1 (stereo partly drawn) [Example 201, 6-(7-cyanoimidazo[1,2-b]pyridazin-3-yl)-N—((R)-2-fluoro-3-hydroxy-3-methylbutyl)-4-((tetrahydrofuran-3-yl)amino) nicotinamide]"
3,3.6,,210,"CC(C)(O)[C@H](F)CNC(=O)c1cnc(-c2cnn3cc(Cl)cnc23)cc1Nc1cnn(CC(F)(F)F)c1 [Example 226, (R)-6-(6-chloropyrazolo[1,5-a]pyrimidin-3-yl)-N-(2-fluoro-3-hydroxy-3-methylbutyl)-4-((1-(2,2,2-trifluoroethyl)-1H-pyrazol-4-yl)amino)nicotinamide]"
3,< 1.5,,660,"CC(C)(O)[C@H](F)CNC(=O)c1cnc(-c2cnn3cc(C#N)cnc23)cc1Nc1cnn(CC(F)(F)F)c1 [Example 236, (R)-6-(6-cyanopyrazolo[1,5-a]pyrimidin-3-yl)-N-(2-fluoro-3-hydroxy-3-methylbutyl)-4-((1-(2,2,2-trifluoroethyl)-1H-pyrazol-4-yl)amino) nicotinamide]"
2,2.3,200,,"CC(C)(F)Cn1cc(Nc2cc(-c3cnn4cc(C#N)cnc34)ncc2C(=O)NC[C@@H](F)C(C)(C)O)cn1 [Example 235, (R)-6-(6-cyanopyrazolo[1,5-a]pyrimidin-3-yl)-4-((1-(2-fluoro-2-methylpropyl)-1H-pyrazol-4-yl)amino)-N-(2-fluoro-3-hydroxy-3-methylbutyl)nicotinamide]"
2,2.1,220,,"CC(F)(F)Cn1cc(Nc2cc(-c3cnn4cc(C#N)cnc34)ncc2C(=O)NC[C@@H](F)C(C)(C)O)cn1 [Example 238, (R)-6-(6-cyanopyrazolo[1,5-a]pyrimidin-3-yl)-4-((1-(2,2-difluoropropyl)-1H-pyrazol-4-yl)amino)-N-(2-fluoro-3-hydroxy-3-methylbutyl)nicotinamide]"
1,18.4,470,,"CC1(Nc2cc(-c3cnc4cc(Cl)cnn34)ncc2C(=O)NC[C@H](F)C(C)(C)O)CC1 [Example 198, (S)-6-(7-chloroimidazo[1,2-b]pyridazin-3-yl)-N-(2-fluoro-3-hydroxy-3-methylbutyl)-4-((1-methylcyclopropyl)amino) nicotinamide]"
1,12.6,340,,"CC(C)(O)[C@H](F)CNC(=O)c1cnc(-c2cnn3cc(Cl)cnc23)cc1Nc1cnn(C(F)F)c1 [Example 231, (R)-6-(6-chloropyrazolo[1,5-a]pyrimidin-3-yl)-4-((1-(difluoromethyl)-1H-pyrazol-4-yl)amino)-N-(2-fluoro-3-hydroxy-3-methylbutyl) nicotinamide]"

# Reference: patent US10618903B2, “Heteroaryl substituted aminopyridine compounds” (BRISTOL-MYERS SQUIBB COMPANY, priority 2015, dated 2020)
